Values quoted from earlier work in patent US11058674B2 (priority 2016, dated 2021).
Read-outs that look alike come from different tables or passages of the source.

Columns and labels:
mouse [1] = tested on: mouse; set-up: key to Conditioned place preference Relapse: ∘: Effective; settings: for CPP acquisition caused by cocaine / CPP expression caused by cocaine: N/OFQ: intraventricular administration to a mouse
mouse [2] = tested on: mouse; set-up: key: ∘: Effective; x: Ineffective; settings: cocaine addiction
[3] = set-up: key: ∘: Effective; settings: alcohol addiction
[4] = set-up: key: ∘: Effective; settings: alcohol addiction; remark: listed apart in the source
[5] = believed, from literature
rat = tested on: rat; set-up: key to Self-administration Seeking behavior: ∘: Effective; x: Ineffective
mouse [6] = tested on: mouse; set-up: key: ∘: Effective; settings: cocaine addiction

## O=C1Cc2ccccc2N1C1CCN(C2CCC3CCCc4cccc2c43)CC1 (centres unmarked) [AT-202, 1-[1-(2,3,3a,4,5,6-hexahydro-1H-phenalen-1-yl)piperidin-4-yl]-indolin-2-one]
Mouse [1]
  CPP acquisition caused by cocaine: does not affect
Mouse [1]; cocaine CPP
  relapse of CPP caused by a stress: suppresses
Mouse [1]; cocaine addiction
  Conditioned place preference Relapse: ∘ ^20)
Mouse [2]
  Conditioned place preference Acquisition: x ^20)

## CNC(=O)Cn1c(=O)n(C2CCN([C@@H]3Cc4cccc5cccc3c45)CC2)c2ccccc21.Cl.O [MT-7716, (R)-2-{3-[1-(acenaphthen-1-yl)piperidin-4-yl]-2-oxo-2,3-dihydro-1H-benzimidazol-1-yl}-N-methylacetamide hydrochloride monohydrate]
[3]
  Self-administration Seeking behavior: ∘ ^12)
  Self-administration Uptake behavior: ∘ ^11)

## Cl.O=C1NCN(c2ccccc2)C12CCN([C@H]1CC[C@@H]3CCCc4cccc1c43)CC2 [Ro64-6198, (1S,3aS)-8-(2,3,3a,4,5,6-hexahydro-1H-phenalen-1-yl)-1-phenyl-1,3,8-triaza-spiro[4.5]decan-4-one hydrochloride]
[3]
  Self-administration Uptake behavior: ∘ ^10)
[4]
  Conditioned place preference Acquisition: ∘ ^13)
  Conditioned place preference Expression: ∘ ^13)
  Conditioned place preference Relapse: ∘ ^13)

## Cl.O=C1NCN(c2ccccc2)C12CCN(C1Cc3cccc4cccc1c34)CC2 (centres unmarked) [Ro65-6570, 8-acenaphthen-1-yl-phenyl-1,3,8-triaza-spiro[4.5]decan-4-one hydrochloride]
Mouse [1]
  CPP acquisition caused by cocaine: does not affect
  CPP expression caused by cocaine: does not affect
Mouse [2]
  Conditioned place preference Acquisition: x ^19)
  Conditioned place preference Expression: x ^18)

## Cc1ccccc1C(c1ccccc1C)N1C2CCC1CC(O)(c1ccccc1)C2 (centres unmarked) [SCH221510]
[5]
  migration to brain: low migration to brain

## N/OFQ: Endogenous ligands of the NOP receptor, named nociceptin and orphanin FQ
[3]
  Self-administration Seeking behavior: ∘ ^9)
  Self-administration Uptake behavior: ∘ ^9)
[4]
  Conditioned place preference Acquisition: ∘ ^13)
  Conditioned place preference Expression: ∘ ^13)
  Conditioned place preference Relapse: ∘ ^13)
rat; cocaine addiction
  Self-administration Seeking behavior: x ^16)
rat; rat
  cocaine seeking behavior induced by a stress after the extinction of the cocaine self-administration: does not suppress
Mouse [1]
  CPP acquisition caused by cocaine: blocks
  CPP expression caused by cocaine: blocks
Mouse [6]
  Conditioned place preference Acquisition: ∘ ^17)
  Conditioned place preference Expression: ∘ ^18)
